≈ marks a conversion by molar mass, not a printed value. Like-named read-outs stand apart in the source and are kept apart here. Values belong to the compound of their own block, whether it stands above or below them.
Key:
C. glabrata ATCC 90030 [1] = assay: Interaction of AABs (3 µM) with antifungal agents, modified checkerboard; format: cell-based, Candida glabrata; conditions: for Multiplicity factor (MF) with C9: C9 3 µM, |MF| = MIC90 alone/MIC90 with AAB; for Multiplicity factor (MF) with C11: C11 3 µM; for Multiplicity factor (MF) with C13: C13 3 µM
C. glabrata 2853 [2] = assay: as above; format: cell-based, Candida glabrata; conditions: for Multiplicity factor (MF) with C13: C13 3 µM
C. glabrata ATCC 90030 [3] = assay: MIC90/MFC, EUCAST broth microdilution; format: cell-based, Candida glabrata; conditions: ATCC 90030
C. glabrata 2586 [4] = assay: FICI checkerboard, β-aescin with antifungal drugs; format: cell-based, Candida glabrata; conditions: combination with β-aescin
[5] = test system: C. glabrata 2853 clinical strain; assay: MIC90/MFC, EUCAST broth microdilution; format: cell-based, Candida glabrata
C. glabrata 2586 [6] = assay: Interaction of AABs (3 µM) with antifungal agents, modified checkerboard; format: cell-based, Candida glabrata
[7] = test system: biofilms of C. glabrata DSM 1226 and two clinical isolates; design: method as in PMID 37508306; conditions: combination with β-AE; biofilms of three strains; ref [12]; cited from earlier work
[8] = test system: C. glabrata 2586 clinical strain; assay: MIC90/MFC, EUCAST broth microdilution; format: cell-based, Candida glabrata
C. glabrata ATCC 90030 [9] = assay: FICI checkerboard, β-aescin with antifungal drugs; format: cell-based, Candida glabrata; conditions: combination with β-aescin
C. glabrata 2853 [10] = assay: FICI checkerboard, β-aescin with antifungal drugs; format: cell-based, Candida glabrata
C. glabrata 2586 biofilm = assay: Biofilm eradication on polystyrene, fluorescence microscopy (Syto9/PI); format: cell-based, Candida glabrata; conditions: Nakaseomyces glabratus, 2586BIOFILM, 72 h, read-out: Biofilm Viability [%] 2586 Live; for viability at 1 µM: AAB alone 1 μM; for viability at 2 µM: AAB alone 2 μM; for viability at 3 µM: AAB alone 3 μM
Procedure: (§1) C. glabrata biofilm eradication on polystyrene surfaces was assessed according to the following procedure: 1 mL of C. glabrata culture, 10^6 CFU/mL in RMPI 1640 MOPS-buffered medium, was pipetted into the wells of a 48-well adherent plate. Cultures were incubated at 37 °C for 72 h with shaking (400 RPM). […] Non-treated cells were used as the control. This experiment was carried out in triplicate. The analysis of the biofilm eradication of C. glabrata strains on polystyrene surfaces was performed using fluorescence microscopy (FM). For further information, see Section 4.12. below.
(§2) The 72 h biofilm of C. glabrata strains on polystyrene surfaces was stained on 48-well adherent plates with 1 µL of propidium iodide (Ex λ = 543 nm/Em λ = 617 nm) and 1 µL of SYTO9 (Ex λ = 488 nm/Em λ = 503 nm) for 30 min using a LIVE/DEAD BacLight Bacterial Viability Kit (Thermo Fisher Scientific, Waltham, MA USA). Imaging was performed using a fluorescence microscope (FM) BX51 (Olympus, Tokyo, Japan) equipped with an Orca Flash 40 camera (Hamamatsu, Hamamatsu City, Japan) and 10× objective Plan APO. Scale bar = 100 µm. Detailed computer qualitative and quantitative analyses of the obtained pictures were performed by estimating the coverage area on the polystyrene plate (the percentage of the area occupied by the fungal biofilm). The cell viability analysis was performed by calculating the fluorescence intensity of the dyes (Syto9/PI) used. The acquired images were processed and analyzed using Fiji/ImageJ software ver. 1.53c (NIH, Bethesda, MD, USA). First, maximum intensity projections (MIPs) were obtained from stacks of images. The areas of the binary images were transferred into the original live and dead channel MIP images. The mean fluorescence intensities of all detected objects per field of view were calculated using ImageJ’s Analyze Threshold function (Software: ImageJ version 1.53 from Softonic).

[11] = test system: C. glabrata ATCC 90030 biofilm; assay: as above; format: cell-based, Candida glabrata; conditions: Nakaseomyces glabratus, ATCC90030, 72 h, read-out: Biofilm Viability [%] 90030 Live; for viability at 1 µM: AAB alone 1 μM; for viability at 2 µM: AAB alone 2 μM; for viability at 3 µM: AAB alone 3 μM
Procedure: as §1, §2

C. glabrata 2853 biofilm = assay: as above; format: cell-based, Candida glabrata; conditions: Nakaseomyces glabratus, 2853BIOFILM, 72 h, read-out: Biofilm Viability [%] 2853 Live; for viability at 1 µM: AAB alone 1 μM; for viability at 2 µM: AAB alone 2 μM; for viability at 3 µM: AAB alone 3 μM
Procedure: as §1, §2

Krafft temperature (TK) = format: physicochemical
Procedure: CHNS elemental analysis was carried out by a Vario EL cube (Elementar, Germany) calibrated on acetanilide. Electrospray ionization mass spectroscopy (ESI-MS) (micrOTOF-Q instrument; Bruker Daltonics, Germany) allowed for the MS spectra to be obtained. The ESI-MS instrument was operated in the positive ion mode and calibrated with the Tunemix^TM mixture (Bruker Daltonics, Germany). The mass accuracy was better than 5 ppm. The obtained mass spectra were analyzed using DataAnalysis 3.4 software (Bruker Daltonics, Germany). ^1H NMR spectra were recorded on a Bruker AMX-500 spectrometer, using CDCl3 as a solvent. ^1H chemical shifts (in ppm) were calibrated to TMS as an internal reference. Melting points were determined using a Boetius melting point apparatus, while Krafft temperatures were determined according to the directions given in [47]. CMC is the minimum concentration above which micelles are formed in aqueous liquid. To obtain the CMC values, we used McGowan’s model. […] Molecular characteristic volumes (Vx) are found by the addition of the atomic characteristic volumes and the subtraction for the same factory (6.56 × 10^−6 m^3 mol^−1) for every covalent bond.

[12] = test system: C. glabrata strains (ATCC 90030, 2586, 2853); assay: MIC, statements for all tested strains together; format: cell-based, Candida glabrata; conditions: all the tested C. glabrata strains, AAB alone
[13] = test system: Balb/3T3 mouse embryonic fibroblasts; assay: Cell proliferation assay (MTT test); format: cell-based; conditions: 24 h
Procedure: Balb/3T3 (ATCC CCL-163) mouse embryonic fibroblasts were cultured in DMEM medium supplemented with 10% fetal bovine serum, 1 mM L-glutamine, and a 1% penicillin/streptomycin solution and were used for our cytotoxicity studies. The cells were cultured at 37 °C and 5% CO2 until the cell density of 10^6 mL^−1 was obtained. Such cells were then seeded in 24-well tissue microplates (2 × 10^4 cells per well) and allowed to adhere overnight under the abovementioned conditions. Cytotoxicity tests were carried out on the cells prepared in this way.
The newly synthesized AABs (C9, C11, C13, and C15) were selected based on previous studies. They were analyzed at the concentrations of 0.25, 0.5, 1, 2, and 3 µM. […] The BALB-3T3 cells were treated with the prepared mixtures, dissolved in a complete cell culture medium, and then incubated for 24 h under the abovementioned conditions. Three independent replicates were performed for each combination of compounds.
The cytotoxic effect of the tested compounds in combination with β-AE was evaluated by measuring mitochondrial dehydrogenase activity using the MTT assay. After a 24 h incubation period, the medium supplemented with the 1mM MTT solution was added to each well. The cultures were continued for another 4 h under the conditions enriched with 5% CO2. After this time, the supernatant was collected, and MTT formazan was extracted from the cells using DMSO. The reaction was then stopped with Sörensen buffer (0.1 mol/L glycine; 0.1 mol/L NaCl; and pH 10.5). The percentage of cytotoxicity was calculated by comparing the absorbance values (λ = 560 nm) of the test sample to the control sample, which was untreated fibroblast cells. In the test performed, the negative control (C−) (sample not treated; PBS added) and positive control (C+) were fibroblast cells treated with 1% SDS [60].

[14] = C9 at constant 3 µM, dilutions in µg/mL
[15] = C11 at constant 3 µM, dilutions in µg/mL
[16] = C13 at constant 3 µM, dilutions in µg/mL
[17] = C15 at constant 3 µM, dilutions in µg/mL
[18] = Nakaseomyces glabratus, read-out: MFC
[19] = Nakaseomyces glabratus, read-out: MIC90
[20] = Nakaseomyces glabratus, ATCC90030, read-out: MIC converted to

SMILES: CC(=O)N1CCN(c2ccc(OCC3COC(Cn4ccnc4)(c4ccc(Cl)cc4Cl)O3)cc2)CC1 (stereo not drawn) [Ketoconazole]
Multiplicity factor (MF) with C9 (C. glabrata ATCC 90030 [1]): 16 (16)
Multiplicity factor (MF) with C9 (C. glabrata ATCC 90030 [1]; listed as ketoconazole): 16
MIC90 of antimycotic combined with C9 (C. glabrata ATCC 90030 [1]; [14]): 16 (16)
Multiplicity factor (MF) with C11 (C. glabrata ATCC 90030 [1]): 16 (16)
Multiplicity factor (MF) with C11 (C. glabrata ATCC 90030 [1]; listed as ketoconazole): 16
MIC90 of antimycotic combined with C11 (C. glabrata ATCC 90030 [1]; [15]): 16 (16)
Multiplicity factor (MF) with C13 (C. glabrata ATCC 90030 [1]): 16 (16)
Multiplicity factor (MF) with C13 (C. glabrata ATCC 90030 [1]; listed as ketoconazole): 16
MIC90 of antimycotic combined with C13 (C. glabrata ATCC 90030 [1]; [16]): 16 (16)
Multiplicity factor (MF) with C15 (C. glabrata ATCC 90030 [1]; C15 3 µM): 64
MIC90 of antimycotic combined with C15 (C. glabrata ATCC 90030 [1]; [17]): 4
Multiplicity factor (MF) with C9 (C. glabrata 2853 [2]; C9 3 µM): 1
MIC90 of antimycotic combined with C9 (C. glabrata 2853 [2]; [14]): 4
Multiplicity factor (MF) with C11 (C. glabrata 2853 [2]; C11 3 µM): 1
MIC90 of antimycotic combined with C11 (C. glabrata 2853 [2]; [15]): 4
Multiplicity factor (MF) with C13 (C. glabrata 2853 [2]): 2 (2)
Multiplicity factor (MF) with C13 (C. glabrata 2853 [2]; listed as ketoconazole): 2
MIC90 of antimycotic combined with C13 (C. glabrata 2853 [2]; [16]): 2 (2)
Multiplicity factor (MF) with C15 (C. glabrata 2853 [2]; C15 3 µM): 4
MIC90 of antimycotic combined with C15 (C. glabrata 2853 [2]; [17]): 1
MFC (C. glabrata ATCC 90030 [3]; Nakaseomyces glabratus, ATCC90030, read-out: MFC): 1020 µg/mL (≈ 1930 µM)
MIC90 (C. glabrata ATCC 90030 [3]; Nakaseomyces glabratus, ATCC90030, read-out: MIC90): 256 µg/mL (≈ 482 µM)
FICI (C. glabrata 2586 [4]): 1.25
MFC [5, 18]: 1020 µg/mL (≈ 1930 µM)
MIC90 [5, 19]: 4 µg/mL (≈ 7.53 µM)
Multiplicity factor (MF) with C9 (C. glabrata 2586 [6]; C9 3 µM): 8
MIC90 of antimycotic combined with C9 (C. glabrata 2586 [6]; [14]): 64
Multiplicity factor (MF) with C11 (C. glabrata 2586 [6]; C11 3 µM): 16
MIC90 of antimycotic combined with C11 (C. glabrata 2586 [6]; [15]): 32
MIC90 of antimycotic combined with C13 (C. glabrata 2586 [6]; [16]): 16
Multiplicity factor (MF) with C15 (C. glabrata 2586 [6]; C15 3 µM): 64
MIC90 of antimycotic combined with C15 (C. glabrata 2586 [6]; [17]): 8
FICI [7]: ≤ 0.5
MFC [8, 18]: 1020 µg/mL (≈ 1930 µM)
MIC90 [8, 19]: 512 µg/mL (≈ 963 µM)
FICI (C. glabrata ATCC 90030 [9]): 2
Type of interaction with β-AE (by FICI) (C. glabrata 2853 [10]): additive
FICI (C. glabrata 2853 [10]; combination with β-aescin): 0.75

MIC90 (C. glabrata ATCC 90030 [3]; AAB alone): >3 µM/mL
TK (Krafft temperature) (Krafft temperature (TK)): 20.5 °C
MIC90 ([5]; AAB alone): >3 µM/mL
MIC [12, 20]: 1150 µg/mL (≈ 3000 µM)
MIC [12]: 3 µM/mL
MIC90 ([8]; AAB alone): >3 µM/mL
SMILES: CCCCCCCCCCCCCC(=O)N(C)CCC[N+](C)(C)CC(=O)[O-] [C13]
viability at 1 µM (C. glabrata 2586 biofilm): 4.56%
viability at 2 µM (C. glabrata 2586 biofilm): 4.57%
viability at 3 µM (C. glabrata 2586 biofilm): 12.9%
viability at 1 µM [11]: 1.96%
viability at 2 µM [11]: 6.55%
viability at 3 µM [11]: 2.26%
viability at 1 µM (C. glabrata 2853 biofilm): 11.6%
viability at 2 µM (C. glabrata 2853 biofilm): 4.98%
viability at 3 µM (C. glabrata 2853 biofilm): 14.2%
Cytotoxicity level ([13]; 2 µM/mL): 85%

MIC90 (C. glabrata ATCC 90030 [3]; AAB alone): >3 µM/mL
TK (Krafft temperature) (Krafft temperature (TK)): 36.4 °C
MIC90 ([5]; AAB alone): >3 µM/mL
MIC [12, 20]: 1240 µg/mL (≈ 3000 µM)
MIC [12]: 3 µM/mL
MIC90 ([8]; AAB alone): >3 µM/mL
SMILES: CCCCCCCCCCCCCCCC(=O)N(C)CCC[N+](C)(C)CC(=O)[O-] [C15]
viability at 1 µM (C. glabrata 2586 biofilm): 6.07%
viability at 2 µM (C. glabrata 2586 biofilm): 2.33%
viability at 3 µM (C. glabrata 2586 biofilm): 6.23%
viability at 1 µM [11]: 41.9%
viability at 2 µM [11]: 28.8%
viability at 3 µM [11]: 41.4%
viability at 1 µM (C. glabrata 2853 biofilm): 63%
viability at 2 µM (C. glabrata 2853 biofilm): 17%
viability at 3 µM (C. glabrata 2853 biofilm): 6.64%
Decrease of viability ([13]; 0.25 µm/mL): 15%
Decrease of viability ([13]; 0.5 µm/mL): 28%

MIC90 (C. glabrata ATCC 90030 [3]; AAB alone): >3 µM/mL
TK (Krafft temperature) (Krafft temperature (TK)): ~5 °C
MIC90 ([5]; AAB alone): >3 µM/mL
MIC [12, 20]: 1070 µg/mL (≈ 3000 µM)
MIC [12]: 3 µM/mL
MIC90 ([8]; AAB alone): >3 µM/mL
SMILES: CCCCCCCCCCCC(=O)N(C)CCC[N+](C)(C)CC(=O)[O-] [C11]
viability at 1 µM (C. glabrata 2586 biofilm): 4.54%
viability at 2 µM (C. glabrata 2586 biofilm): 4.45%
viability at 3 µM (C. glabrata 2586 biofilm): 3.49%
viability at 1 µM [11]: 32.6%
viability at 2 µM [11]: 3.96%
viability at 3 µM [11]: 2.14%
viability at 1 µM (C. glabrata 2853 biofilm): 37.2%
viability at 2 µM (C. glabrata 2853 biofilm): 3.06%
viability at 3 µM (C. glabrata 2853 biofilm): 7.34%
Cytotoxicity level ([13]; 1 µm/mL): 85%
